Measurements from PubChem BioAssay AID2305 (GlaxoSmithKline (GSK), 2010).

test system: P. falciparum 3D7 growth, pLDH absorbance; experiment: P. falciparum 3D7 growth inhibition, dose response, strain 3D7 (AID 2305)

Point of comparison: Cc1cc(NN=Cc2ccccc2[N+](=O)[O-])c2cc(C(F)(F)F)ccc2n1, IC50 750 nM. Against it:
- O=C(/C=C/c1ccc(I)cc1)NCCCCCN1CCC(c2c[nH]c3ccccc23)CC1 — within 1.5-fold, 840 nM
- Cc1ccc2[nH]c(-c3ccc(C(=O)NCc4ccc(Cl)c(Cl)c4)cc3)nc2c1C — within 1.5-fold, 790 nM
- COC(=O)c1sc(-c2ccc(Cl)cc2)cc1N(CCCN1CCC(N2CCCCC2)CC1)S(=O)(=O)c1ccc(C)cc1 — within 1.5-fold, 740 nM
- CCc1cn2c3c(cc(C(=O)N[C@@H](Cc4ccccc4)[C@H](O)CNC4CCOCC4)cc13)N(C(C)C)S(=O)(=O)CC2 — 9.4-fold lower, 80 nM
- NC(N)=NN=CC(=O)Nc1cc([N+](=O)[O-])cc([N+](=O)[O-])c1 — within 1.5-fold, 630 nM
- Cn1ccnc1CCC(=O)Nc1ccc(Cl)cc1C(=O)Nc1ccc(Cl)cc1 — 2.1-fold higher, 1560 nM
- Cc1cc(NC(=O)c2ccsc2)ccc1OC1CCN(Cc2ccc(F)cc2)CC1 — 1.6-fold higher, 1220 nM
- CCN(CC)CCN(Cc1ccc(-c2ccc(Cl)s2)cc1)C(=O)Cn1c(CCc2cccc(F)c2F)nc(=O)c2ccccc21 — 1.5-fold higher, 1140 nM
- COc1ccc(S(=O)(=O)NC2CCN(CCCOc3ccnc4cc(Cl)ccc34)C2)cc1OC (centres undefined) — within 1.5-fold, 1050 nM
- CO/C(=C\C=C\c1cc2cc(Cl)c(Cl)cc2[nH]1)C(=O)NCCCNCCN(C)c1ccccc1 — within 1.5-fold, 780 nM
- C[C@H](NC(=O)c1c(CN2CCN(C(=O)C(C)(C)C)CC2)c(-c2cccs2)nc2ccccc12)C1CCCCC1 — 1.6-fold higher, 1180 nM
- C=CCn1ccc2c3c(N)nc(N)nc3ccc21 — 11-fold lower, 70 nM
- Cc1[nH]c(C)c(-c2ccc(-c3ccc(OCC(F)(F)F)cc3)nc2)c(=O)c1Cl — 1.9-fold lower, 390 nM
- COc1ccc(-c2cnc3ccc(NCCCO)nn23)cc1OC — within 1.5-fold, 670 nM
- CC(C)(C)c1ccc(CN2CCC(CNC(=O)c3cc(-c4cccc(Cl)c4)cs3)C2)cc1 (centres undefined) — 1.5-fold higher, 1160 nM
- CC(=O)Nc1ncc(C(=O)Nc2ccc(-c3cccc(-c4nc5ccc(C(F)(F)F)cc5[nH]4)c3)cc2)s1 — 2.9-fold lower, 260 nM
- N#Cc1cccc(CNC(=O)c2cccc(Nc3ccnc4ccc(F)cc34)c2)c1 — within 1.5-fold, 990 nM
- Oc1ccccc1CNCC12CC3CC(CC(C3)C1)C2 — 2.7-fold lower, 280 nM
- Nc1ccc2[nH]cc(C3CCN(CC4CCC(NC(=O)/C=C/c5ccccc5Cl)CC4)CC3)c2n1 (centres undefined) — within 1.5-fold, 690 nM
- COCCNC(=O)c1ccc(OC2CCN(Cc3ccc(F)c(F)c3)CC2)c(Cl)c1 — 2-fold higher, 1490 nM
- Clc1ccc2nc(-c3cccnc3)[nH]c2c1 — 19-fold lower, 40 nM
- Cc1ccc(C)c(Cn2c(N3CCC(C(=O)NCc4cccs4)CC3)nc3ccccc32)c1 — within 1.5-fold, 940 nM
- O=C(Cn1c(CCc2cccc(F)c2F)cc(=O)c2ccccc21)N(Cc1ccc(-c2ccc(C(F)(F)F)cc2)cc1)C1CCN(CCO)CC1 — 1.8-fold higher, 1320 nM
- Cc1[nH]nc2cc(Nc3nccc(Nc4ccc(Oc5ccccc5)cc4)n3)ccc12 — within 1.5-fold, 600 nM
- COc1cc(Nc2nccc(N3CCC(NC(=O)Nc4ccc5c(c4)OCO5)C3)n2)cc(OC)c1OC (centres undefined) — within 1.5-fold, 760 nM
- Cc1cc(C(=O)Nc2ccc3c(c2)CCN3C2CCN(Cc3ccc4nsnc4c3)C2)no1 (centres undefined) — within 1.5-fold, 640 nM
- Fc1ccc2cc(C=Cc3ccncc3)[nH]c2c1 — within 1.5-fold, 620 nM
- Cc1ccc(C)c2c1[nH]c1ccc(C3=NCCN3)cc12 — 1.5-fold lower, 500 nM
- OC[C@H](Nc1nc(C(Oc2ccccc2)c2ccccc2)nc2[nH]ncc12)c1ccccc1 (some centres undefined) — within 1.5-fold, 850 nM
- CS(=O)(=O)c1ccc(CNCc2cccc(-c3ccc(-c4nc5ccc(C(F)(F)F)cc5[nH]4)cc3)c2)cc1 — within 1.5-fold, 510 nM
- CCN1CCN(c2cc(C)c3cc(NC(=O)c4cncc(Br)c4)ccc3n2)CC1 — within 1.5-fold, 660 nM
- Cc1cc(N[C@@H](Cc2ccccc2)C(=O)NCc2cccc(F)c2)nc(NCC2CCCCC2)n1 — within 1.5-fold, 850 nM
- Cc1ccc(C)c(Cn2ccc3nc(N)nc(N)c32)c1 — 2.5-fold lower, 300 nM
- c1ccc2[nH]c(-c3ccc(-c4ccc(CNCC5CCCO5)cc4)s3)nc2c1 (centres undefined) — within 1.5-fold, 870 nM
- CS(=O)(=O)Cc1ccc(Nc2nccc(-c3c(-c4cccc(NC(=O)C5CCCCC5)c4)nn4ncccc34)n2)cc1 — 3.8-fold lower, 200 nM
- COCCNCc1ccc(-c2cccc(CN(C(=O)NCCc3ccccc3)C3CCN(Cc4ccccc4)CC3)c2)cc1 — within 1.5-fold, 920 nM
- O=C(c1cccc(Cl)c1)N1CCN(c2ccc([N+](=O)[O-])c(NC3CC3)c2)CC1 — within 1.5-fold, 870 nM
- COc1cccc2sc(Nc3nc(-c4ccccn4)cs3)nc12 — within 1.5-fold, 800 nM
